The text below walks through data of patent US4263323A, “β-Receptor blocking compounds and treatment of cardiovascular disorders therewith” (priority 1979, dated 1981).

For one experiment, the system named is heart rate. The experiment is described as follows: Intrinsic beta mimetic activity on the heart, reserpinized cat. Format: in vivo. The protocol:
(§1) The agents of the present invention were tested as regards their biological properties. All compounds were thereby tested in anesthetized cats (males and females weighing 2.5-3.5 kg) pretreated with reserpine (5 mg/kg bodyweight administered intramuscularly) about 16 hours before the experiments. The animals were pretreated with reserpine in order to eliminate the endogenous sympathetic control of heart rate and vascular smooth muscle tone. The cats were anesthetized with pentobarbital (30 mg/kg bodyweight administered i.p.) and artificially ventilated with room air. A bilateral vagotomy was performed in the neck. Blood pressure was obtained from a cannulated carotid artery and heart rate was registered from a cardiotachometer, triggered by the electrocardiogram (ECG). Vascular resistance in one hind leg was recorded by an autoperfusion technique. Intrinsic beta mimetic activity on the heart was seen as increased heart rate after drug administration. The test compounds were given intravenously in logarithmically increasing doses. […] Blockade of the heart rate and vascular resistance response to isoproterenol was calculated for each dose and expressed as percent decrease of the response obtained when isoproterenol was injected before any dose of the test compound. […]

The next experiment addresses T1, cardiac β-receptors (Felis catus, UniProt Q9TST6).
T1 construct: from tissue; host or cells: heart of the living, reserpinized, anesthetized cat (in vivo heart rate)
The experiment is described as follows: β-blockade of isoprenaline heart rate response, reserpinized anesthetized cat. Format: in vivo. Particulars: iv, 0.012-51.2 μmol/kg, isoproterenol 0.1 μg/kg i.v. The protocol: The new compounds have valuable pharmacological properties. Thus they block cardiac β-receptors, which is shown at the determination of the antagonism of tachycardia after an intravenous injection of 0.1 ug/kg of 1-isoproterenol sulphate on an anaesthetized cat at an intravenous dose of 0.012-51.2 umol/kg. The compounds are heart selective with regard to their β-blocking activity.
as §1, with “Blood pressure was obtained from a cannulated carotid artery and heart rate was registered from a cardiotachometer, triggered by the electrocardiogram (ECG).” left out, “technique.” for “technique. Intrinsic beta mimetic activity on the heart was seen as increased heart rate after drug administration. The test compounds were given intravenously in logarithmically increasing doses.”

In another experiment the target is T2, α-receptors (Rattus norvegicus, UniProt P43140).
T2 construct: from tissue; host or cells: isolated rat vas deferens
T2 sequence (P43140 1-466): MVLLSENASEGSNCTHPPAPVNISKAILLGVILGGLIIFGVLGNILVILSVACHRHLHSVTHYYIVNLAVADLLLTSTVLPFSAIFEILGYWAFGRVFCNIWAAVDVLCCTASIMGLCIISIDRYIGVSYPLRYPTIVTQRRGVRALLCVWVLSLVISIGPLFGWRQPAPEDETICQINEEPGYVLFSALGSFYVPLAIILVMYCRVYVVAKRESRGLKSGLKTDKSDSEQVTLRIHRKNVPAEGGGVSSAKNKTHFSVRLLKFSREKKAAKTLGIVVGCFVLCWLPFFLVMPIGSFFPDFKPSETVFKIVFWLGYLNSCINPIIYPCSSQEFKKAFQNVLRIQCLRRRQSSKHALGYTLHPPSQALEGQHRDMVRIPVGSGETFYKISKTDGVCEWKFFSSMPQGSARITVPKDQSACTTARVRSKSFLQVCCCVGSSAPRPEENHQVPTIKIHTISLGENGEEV
The experiment can be described thus: α-receptor blocking activity in isolated rat vas deferens (noradrenaline contraction). To be noted: read-out: pA2 (α-receptor blocking activity) (converted). As to the method: α-receptor blocking activity was tested in isolated rat vas deferens. Noradrenaline administered to the organ bath induces a contraction in vas deferens by activating α-receptors. The ability of the test compounds to inhibit this noradrenaline response was studied. The α-receptor blocking activity was expressed as pA2 values. pA2 is defined as the negative logarithm of the concentration of an antagonist (in our case the test compounds) which leads to the fact that the dose of the agonist (in our case noradrenaline) has to be doubled in order to obtain the same effect of the agonist as that obtained without the antagonist present. Thus a high pA2 value indicates a high α-receptor blocking activity of a compound.

Experiment [1] has as its target T3, β-receptors (vascular resistance in one hind leg) (Felis catus, UniProt Q9TST5).
T3 construct: from tissue; host or cells: hind-leg vasculature of the living, reserpinized, anesthetized cat (in vivo)
The experiment can be described thus: β-blockade of isoprenaline peripheral resistance response (hind leg), reserpinized anesthetized cat. It is filed as in vivo. To be noted: iv, 0.012-51.2 μmol/kg, isoproterenol 0.1 μg/kg i.v. As to the method: as §1

T1 sequence (Q9TST6 whole entry): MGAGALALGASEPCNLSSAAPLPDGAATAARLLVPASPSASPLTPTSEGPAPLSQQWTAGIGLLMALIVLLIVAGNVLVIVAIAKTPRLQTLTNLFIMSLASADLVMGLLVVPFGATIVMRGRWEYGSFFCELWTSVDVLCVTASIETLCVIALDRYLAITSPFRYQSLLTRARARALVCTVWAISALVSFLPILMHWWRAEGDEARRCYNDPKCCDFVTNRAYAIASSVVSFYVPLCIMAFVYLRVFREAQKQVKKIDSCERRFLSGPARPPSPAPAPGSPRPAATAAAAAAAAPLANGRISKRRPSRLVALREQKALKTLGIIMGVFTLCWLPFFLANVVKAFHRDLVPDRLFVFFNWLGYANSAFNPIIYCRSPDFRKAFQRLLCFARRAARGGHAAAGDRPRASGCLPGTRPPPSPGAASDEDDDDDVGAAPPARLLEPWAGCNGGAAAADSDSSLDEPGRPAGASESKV
T3 sequence (Q9TST5 whole entry): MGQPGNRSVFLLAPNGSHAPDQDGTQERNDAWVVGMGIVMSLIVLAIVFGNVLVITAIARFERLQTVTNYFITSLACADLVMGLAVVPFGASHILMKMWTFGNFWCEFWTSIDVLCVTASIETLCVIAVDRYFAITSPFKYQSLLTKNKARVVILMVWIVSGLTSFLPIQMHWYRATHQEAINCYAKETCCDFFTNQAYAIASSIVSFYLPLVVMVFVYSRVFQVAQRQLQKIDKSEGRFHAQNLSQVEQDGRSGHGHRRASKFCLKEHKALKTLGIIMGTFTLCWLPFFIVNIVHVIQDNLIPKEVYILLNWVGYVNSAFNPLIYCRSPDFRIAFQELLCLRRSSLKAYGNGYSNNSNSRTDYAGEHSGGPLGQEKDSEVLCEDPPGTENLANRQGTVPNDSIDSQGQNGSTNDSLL

As for `COCCNC(=O)COc1ccccc1OCC(O)CNCCOc1ccc(O)cc1` (centres unmarked) [3-[2-(4-hydroxyphenoxy)ethylamino]-1-o-methoxyethylaminocarbonylmethoxyphenoxy-propanol-2], in the experiment with heart rate (Felis catus, iv, % of isoprenaline), the Emax worked out at 0%. The “Intrinsic activity Δbeats/min.” value in the experiment on heart rate (i.v.) worked out at 0 beats/min. For the same compound, the figures for the median effective dose (ED50) (at cardiac β-receptors; in experiment [1]) were 0.05 µmol/kg and 1.8 µmol/kg, respectively. Also, the Kb at α-receptors was 3.16 µM.

Usually Emax stands for the maximal effect, on the per cent scale that the assay sets. What is called ED50 is the midpoint of the dose-response relation. Low readings indicate greater potency, high ones weaker potency.
